Experimental data: US8278294B2, “Substituted isoquinoline and isoquinolinone derivatives as inhibitors of Rho-kinase” (Sanofi, priority 2006, dated 2012)

These compounds were tested against T1, human recombinant ROCK II (Homo sapiens, UniProt O75116) (assay: Determination of Rho kinase inhibition (Caliper peptide phosphorylation assay)). Conditions: negative decadal logarithm of the IC50; ROCK II residues 11-552, fluorescein peptide substrate, ATP, 60 min at 32° C.; salt or free base as obtained in the examples.
T1 construct: recombinant human ROCK-II residues 11-552; His6 (N); purchased Upstate Ltd., Dundee, UK
T1 sequence (O75116 11-552): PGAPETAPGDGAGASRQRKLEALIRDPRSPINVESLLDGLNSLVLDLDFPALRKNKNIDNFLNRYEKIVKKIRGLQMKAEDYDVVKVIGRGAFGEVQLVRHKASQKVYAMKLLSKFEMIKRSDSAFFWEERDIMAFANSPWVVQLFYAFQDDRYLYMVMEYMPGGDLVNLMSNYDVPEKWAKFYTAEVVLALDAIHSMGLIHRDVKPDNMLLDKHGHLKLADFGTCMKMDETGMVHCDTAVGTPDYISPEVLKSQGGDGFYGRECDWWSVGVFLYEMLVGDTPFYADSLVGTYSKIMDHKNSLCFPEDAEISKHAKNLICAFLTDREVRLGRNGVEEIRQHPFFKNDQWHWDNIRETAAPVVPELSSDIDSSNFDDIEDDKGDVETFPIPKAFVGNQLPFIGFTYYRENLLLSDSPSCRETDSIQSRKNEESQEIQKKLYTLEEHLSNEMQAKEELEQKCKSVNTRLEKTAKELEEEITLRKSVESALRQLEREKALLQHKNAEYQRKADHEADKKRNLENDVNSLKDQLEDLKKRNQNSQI
Type: biochemical
Method: Determination of Rho Kinase Inhibition
To measure Rho-kinase inhibition, IC50 values were determined according to the following protocol:
Active human recombinant ROCK II (N-terminal His6-tagged recombinant human ROCK-II residues 11-552) was purchased from Upstate Ltd., Dundee, UK. The peptide substrate, Fluorescein-AKRRRLSSLRA-COOH, was obtained from JPT Peptide Technologies, Berlin, Germany. Adenosine-5′-triphosphate (ATP), bovine serum albumine (BSA), dimethylsulphoxide (DMSO), 4-(2-Hydroxyethyl)piperazine-1-ethanesulfonic acid (Hepes), Brij-35 and dithiothreitol (DTT) were purchased from Sigma-Aldrich, Munich, Germany. Tris(hydroxymethyl)-aminomethane (Tris), magnesium chloride, NaOH, 1M HCl and EDTA were obtained from Merck Biosciences, Darmstadt, Germany. “Complete” protease inhibitor was from Roche Diagnostics, Mannheim, Germany.
Test compounds were diluted to the appropriate concentrations in buffer 1 (25 mM Tris-HCl, pH 7.4, 5 mM MgCl2, 2 mM DTT, 0.02% (w/v) BSA and 3% DMSO). The ROCK II enzyme was diluted to a concentration of 100 ng/ml in buffer 2 (25 mM Tris-HCl, pH 7.4, 5 mM MgCl2, 2 mM DTT and 0.02% (w/v) BSA). The peptide substrate and ATP were diluted to concentrations of 3 μM and 120 μM, respectively, in the buffer 2. Two μl of the compound solution were mixed with 2 μl of the diluted enzyme in a 384-well small volume microtiter plate (Greiner, Bio-One, Frickenhausen, Germany), and the kinase reaction was initiated by addition of 2 μl of the solution containing peptide substrate and ATP. After 60 min incubation at 32° C., the reaction was stopped by addition of 20 μl of a solution containing 100 mM Hepes-NaOH, pH 7.4, 0.015% (v/v) Brij-35, 45 mM EDTA and 0.227% chip coating reagent 1 (Caliper Lifescience Inc, Hopkinton, Mass.). Phosphorylation of the substrate peptide was then detected on a Caliper 3000 instrument essentially as described by Pommereau et al (J. Biomol. Screening 9(5), 409-416, 2004). Separation conditions were as follows: Pressure −1.3 psi, upstream voltage −1562 V, downstream voltage −500 V, sample sip time 200 ms. Positive controls (buffer 1 instead of compound) and negative controls (buffer 1 instead of compound and buffer 2 instead of ROCK II) were run in parallel on each plate.
The following products/compounds were tested in said assay by using the respective form (salt or free base) obtained as in the examples described above and the following activities were measured.
With `CN(C)CC(=O)N1CCC(Oc2cc3cc[nH]c(=O)c3cc2Cl)CC1` [Example 16, 7-Chloro-6-[1-(2-dimethylamino-acetyl)-piperidin-4-yloxy]-2H-isoquinolin-1-one] the IC50 was ≤ 1000 nM.
For `O=c1[nH]ccc2cc(OC3CNC3)c(Cl)cc12` [Example 58, 6-(Azetidin-3-yloxy)-7-chloro-2H-isoquinolin-1-one], the IC50 was ≤ 1000 nM.
`Cc1c[nH]c(=O)c2ccc(OC3CCN(C[C@@H](N)CO)CC3)c(F)c12` [Example 75, 6-[1-((R)-2-Amino-3-hydroxy-propyl)-piperidin-4-yloxy]-5-fluoro-4-methyl-2H-isoquinolin-1-one] gave an IC50 of 1000 to 10000 nM.
In the case of `Cc1cc2c(=O)[nH]ccc2cc1OC[C@@H]1CCNC1` [Example 69, 7-Methyl-6-((R)-1-pyrrolidin-3-ylmethoxy)-2H-isoquinolin-1-one], the IC50 is reported as ≤ 1000 nM.
`Cc1cc2c(=O)[nH]ccc2cc1OC1CCCNCC1` (stereo not drawn) [Example 68, 6-(Azepan-4-yloxy)-7-methyl-2H-isoquinolin-1-one] was tested, and the IC50 was ≤ 1000 nM.
In the case of `O=c1[nH]ccc2cc(O[C@@H]3CCN(Cc4ccccc4)C3)c(Cl)cc12` [Example 66, 6-((R)-1-Benzyl-pyrrolidin-3-yloxy)-7-chloro-2H-isoquinolin-1-one], the IC50 is reported as ≤ 1000 nM.
`Cc1cc2c(=O)[nH]ccc2cc1O[C@H]1CCNC1` [Example 70, 7-Methyl-6-((S)-pyrrolidin-3-yloxy)-2H-isoquinolin-1-one] was tested, and the IC50 was ≤ 1000 nM.
With `NCC(=O)N1CCC(Oc2ccc3c(=O)[nH]ccc3c2)CC1` [Example 24, 6-[1-(2-Amino-acetyl)-piperidin-4-yloxy]-2H-isoquinolin-1-one] the IC50 was ≤ 1000 nM.
In the case of `C[C@@H](N)C(=O)N1CCC(Oc2cc3cc[nH]c(=O)c3cc2Cl)CC1` [Example 11, 6-[1-(2-Amino-propionyl)-piperidin-4-yloxy]-7-chloro-2H-isoquinolin-1-one], the IC50 is reported as ≤ 1000 nM.
In the case of `O=c1[nH]ccc2cc(OC3CCCNCC3)c(Cl)cc12` (stereo not drawn) [Example 55, 6-(Azepan-4-yloxy)-7-chloro-2H-isoquinolin-1-one], the IC50 is reported as ≤ 1000 nM.
With `O=C([C@@H]1CCCN1)N1CCC(Oc2cc3cc[nH]c(=O)c3cc2Cl)CC1` [Example 15, 7-Chloro-6-[1-((S)-pyrrolidine-2-carbonyl)-piperidin-4-yloxy]-2H-isoquinolin-1-one] the IC50 was ≤ 1000 nM.
`N[C@@H](Cc1ccc(Cl)cc1)C(=O)N1CCC(Oc2cc3cc[nH]c(=O)c3cc2Cl)CC1` [Example 22, 6-{1-[(S)-2-Amino-3-(4-chloro-phenyl)-propionyl]-piperidin-4-yloxy}-7-chloro-2H-isoquinolin-1-one] was tested, and the IC50 was ≤ 1000 nM.
`O=c1[nH]ccc2cc(O[C@H]3CCN(Cc4ccccc4)C3)c(Cl)cc12` [Example 67, 6-((S)-1-Benzyl-pyrrolidin-3-yloxy)-7-chloro-2H-isoquinolin-1-one] was tested, and the IC50 was 1000 to 10000 nM.
Work on `NC1(C(=O)N2CCC(Oc3cc4cc[nH]c(=O)c4cc3Cl)CC2)CC1` [Example 19, 6-[1-(1-Amino-cyclopropanecarbonyl)-piperidin-4-yloxy]-7-chloro-2H-isoquinolin-1-one] yielded an IC50 of 1000 to 10000 nM.
`CCCNC(=O)CN1CCC(Oc2cc3cc[nH]c(=O)c3cc2Cl)CC1` [Example 46, 2-[4-(7-Chloro-1-oxo-1,2-dihydro-isoquinolin-6-yloxy)-piperidin-1-yl]-N-propyl-acetamide] was tested, and the IC50 was ≤ 1000 nM.
